According to the NIST ThermoML archive (doi:10.1016/j.jct.2012.03.034):
Numbers after ± are expanded uncertainties.

Tests used:
[1] = 298.15 K, 101.33 kPa, Liquid; for speed of sound: Linear variable-path acoustic interferometer; for mass density: Vibrating tube method; for viscosity: dual vibrating plate viscometer, AandD Co. Ltd Model SV-10
[2] = xn = mol fraction of the nth substance listed; details: 101 kPa, Liquid, x2 = 0; for speed of sound: Linear variable-path acoustic interferometer; for mass density: Vibrating tube method; for viscosity: dual vibrating plate viscometer, AandD Co. Ltd Model SV-10

| SMILES | speed of sound [1] | mass density [1] | viscosity [1] | speed of sound ([2]; 298.15 K) | mass density ([2]; 298.15 K) | speed of sound ([2]; 303.15 K) | mass density ([2]; 303.15 K) | speed of sound ([2]; 308.15 K) | mass density ([2]; 308.15 K) | viscosity ([2]; 308.15 K) | speed of sound ([2]; 313.15 K) | mass density ([2]; 313.15 K) | viscosity ([2]; 313.15 K) | viscosity ([2]; 298.15 K) | viscosity ([2]; 303.15 K) |
| --- | --- | --- | --- | --- | --- | --- | --- | --- | --- | --- | --- | --- | --- | --- | --- |
| CN1CCCC1=O [N-methylpyrrolidone] | 1552 ± 2 m/s | 1025.9 ± 0.31 kg/m3 | 1.66 ± 0.03 mPa·s | – | – | – | – | – | – | – | – | – | – | – | – |
| CC[NH+](CC)CC.O=S(=O)([O-])O [triethylammonium hydrogen sulfate] | 1874 ± 2 m/s | 1142.89 ± 0.45 kg/m3 | 235 ± 13 mPa·s | – | – | – | – | – | – | – | – | – | – | – | – |
| CC(=O)O.CCN(CC)CC [triethylammonium acetate] | 1840 ± 2 m/s | 1015.86 ± 0.32 kg/m3 | 24.14 ± 0.39 mPa·s | – | – | – | – | – | – | – | – | – | – | – | – |
| CN1CCCC1=O [N-methylpyrrolidone] + CC[NH+](CC)CC.O=S(=O)([O-])O | – | – | – | 1572 ± 2 m/s | 1025.9 ± 0.3 kg/m3 | 1552 ± 2 m/s | 1023.74 ± 0.3 kg/m3 | 1528 ± 2 m/s | 1019.25 ± 0.3 kg/m3 | 1.39 ± 0.03 mPa·s | 1520 ± 2 m/s | 1014.74 ± 0.3 kg/m3 | 1.31 ± 0.03 mPa·s | – | – |
| CN1CCCC1=O [N-methylpyrrolidone] + CC(=O)O.CCN(CC)CC | – | – | – | 1572 ± 2 m/s | 1025.9 ± 0.3 kg/m3 | 1552 ± 2 m/s | 1023.74 ± 0.3 kg/m3 | 1528 ± 2 m/s | 1019.25 ± 0.3 kg/m3 | 1.39 ± 0.03 mPa·s | 1520 ± 2 m/s | 1014.74 ± 0.3 kg/m3 | 1.31 ± 0.03 mPa·s | 1.66 ± 0.03 mPa·s | 1.49 ± 0.03 mPa·s |
| CN1CCCC1=O [N-methylpyrrolidone] + CC[NH2+]CC.O=S(=O)([O-])O | – | – | – | 1572 ± 2 m/s | 1025.9 ± 0.3 kg/m3 | 1552 ± 2 m/s | 1023.74 ± 0.3 kg/m3 | 1528 ± 2 m/s | 1019.25 ± 0.3 kg/m3 | 1.39 ± 0.03 mPa·s | 1520 ± 2 m/s | 1014.74 ± 0.3 kg/m3 | 1.31 ± 0.03 mPa·s | 1.66 ± 0.03 mPa·s | 1.49 ± 0.03 mPa·s |
| CN1CCCC1=O [N-methylpyrrolidone] + CC(=O)[O-].CC[NH2+]CC | – | – | – | 1572 ± 2 m/s | 1025.9 ± 0.3 kg/m3 | 1552 ± 2 m/s | 1023.74 ± 0.3 kg/m3 | 1528 ± 2 m/s | 1019.25 ± 0.3 kg/m3 | 1.39 ± 0.03 mPa·s | 1520 ± 2 m/s | 1014.74 ± 0.3 kg/m3 | 1.31 ± 0.03 mPa·s | 1.66 ± 0.03 mPa·s | 1.49 ± 0.03 mPa·s |
| CC(=O)[O-].CC[NH2+]CC [diethylammonium acetate] | 1608 ± 2 m/s | 1021.41 ± 0.32 kg/m3 | 16.36 ± 0.23 mPa·s | – | – | – | – | – | – | – | – | – | – | – | – |
| CC[NH2+]CC.O=S(=O)([O-])O [diethylammonium hydrogen sulfate] | 1432 ± 2 m/s | 1283.95 ± 0.61 kg/m3 | 34.1 ± 0.63 mPa·s | – | – | – | – | – | – | – | – | – | – | – | – |
